From US20250186554A1, “FORMULATIONS COMPRISING ACID-NEUTRALIZING POLYMER FOR ORAL ADMINISTRATION OF GLUCAGON-LIKE PEPTIDE-1 AND ANALOGS THEREOF” (Entera Bio Ltd., priority 2022, published 2025)

Key:
[1] = pH upon addition of test substance to 0.1 M HCl solution (pH 1.2), pH meter; assay type: physicochemical
Procedure: Test substances were dissolved in various volumes of 0.1 M HCl solution (pH 1.2) at concentrations of 1, 2, 4, 10, 20, 50, 100 and 150 mg/ml. The solution pH was determined using an MP-103 pH-meter (MRC, Israel) equipped with ELC-10-00 electrode (MRC, Israel) or with a thin electrode HI1083 (HANNA instruments Inc.), shortly after dissolution and up to 26 hours later in order to ensure that the pH remained stable. The highest pH value obtained during the experimental time period was recorded in order to compare the acid-neutralizing capacity of each substance.
SNAC and the basic polymers sodium alginate, sodium carboxymethylcellulose in non-crosslinked (Na-CMC) and crosslinked (croscarmellose sodium, CCS) forms, and sodium starch glycolate (SSG) were dissolved in various volumes of 0.1 M HCl solution (pH 1.2) at concentrations of 1, 2, 4, 10, 20, 50, 100 and 150 mg/ml, and the solution pH was determined using an MP-103 pH-meter (MRC, Israel) equipped with ELC-10-00 electrode (MRC, Israel), as described in the Materials and Methods section hereinabove.
In order to obtain a beneficial rise in pH with a reduced loss of the active form of the absorption enhancer, the effect of various concentrations of different polymers containing carboxylate groups (sodium alginate, sodium starch glycolate, sodium carboxymethylcellulose, and croscarmellose sodium) on pH upon addition to a 0.1 M HCl solution (pH 1.2) was also evaluated. FIG. 2A presents pH values determined using an MP-103 pH-meter (MRC, Israel) equipped with ELC-10-00 electrode (MRC, Israel) and FIG. 2B presents pH values determined using an MP-103 pH-meter (MRC, Israel) equipped with a thin electrode HI1083 (HANNA instruments Inc.).

[2] = in vivo; cited from earlier work

pH 5 minutes after dissolution ([1]; 10 mg/ml SNAC added to HCl solution (pH 1.2)) | pH 5 minutes after dissolution ([1]; 20 mg/ml SNAC added to HCl solution (pH 1.2)) | pH 5 minutes after dissolution ([1]; 100 mg/ml SNAC added to HCl solution (pH 1.2)) | Compound | half-life [2]
about 1.5 | 6.5 | about 7.5 | O=C(O)CCCCCCCNC(=O)c1ccccc1O [SNAC, sodium 8-N-(2-hydroxybenzoyl)aminocaprylate] | –
– | – | – | Semaglutide: fatty acid derivative of a GLP-1 homolog | about 7 days
